# Values of other authors in patent US20200121616A1, “COMPOSITIONS COMPRISING CANNABIDIOL AND HYALURONIC ACID FOR TREATING INFLAMMATORY JOINT DISEASES” (BOL PHARMA LTD., priority 2015, published 2020).
substance,measurement,value
Hyaluronic acid,pKa,about 2.8
